The values that follow come from US20230122344A1, “ANTAGONISTS OF THE MUSCARINIC ACETYLCHOLINE RECEPTOR M4” (Vanderbilt University, priority 2019, published 2023).

The target of this test is T1, Human M4 (Homo sapiens, UniProt P08173).
T1 construct: expressed in transfected cells; host or cells: CHO-K1 (ATCC), co-transfected with chimeric G protein Gqi5
T1 sequence (P08173 1-479): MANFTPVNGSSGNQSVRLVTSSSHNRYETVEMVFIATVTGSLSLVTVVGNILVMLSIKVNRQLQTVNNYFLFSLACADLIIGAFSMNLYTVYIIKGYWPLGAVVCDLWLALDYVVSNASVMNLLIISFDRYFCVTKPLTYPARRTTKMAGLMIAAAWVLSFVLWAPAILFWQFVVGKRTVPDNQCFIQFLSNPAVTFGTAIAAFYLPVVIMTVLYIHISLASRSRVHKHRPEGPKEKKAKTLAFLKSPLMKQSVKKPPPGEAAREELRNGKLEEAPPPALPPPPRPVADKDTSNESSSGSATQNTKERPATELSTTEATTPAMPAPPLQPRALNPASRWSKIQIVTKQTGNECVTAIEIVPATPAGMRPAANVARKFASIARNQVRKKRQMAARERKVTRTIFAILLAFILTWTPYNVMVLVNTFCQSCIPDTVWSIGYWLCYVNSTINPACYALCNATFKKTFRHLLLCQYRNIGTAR
Put plainly: mAChR M4 cell-based functional assay (calcium flux, antagonism of EC80 acetylcholine response). The note with it: M4/Gqi5/CHO-K1 cells; for remaining activity at 30 µM: CHO-K1, % ACh maximum at 30 μM, read-out: Human M4 Emin; for IC50: decrease of response elicited by EC80 acetylcholine. The method, then:
Human or rat M4 cDNA, along with the chimeric G protein Gqi5, were transfected into Chinese hamster ovary (CHO-K1) cells purchased from the American Type Culture Collection using Lipofectamine2000. M4/Gqi5/CHO cells were grown in Ham's F-12 medium containing 10% heat-inactivated fetal bovine serum (FBS), 20 mM HEPES, 500 μg/mL G418 sulfate, and 200 μg/mL Hygromycin B.
For high throughput measurement of agonist-evoked increases in intracellular calcium, CHO-K1 cells stably expressing muscarinic receptors were plated in growth medium lacking G418 and hygromycin at 15,000 cells/20 μL/well in Greiner 384-well black-walled, tissue culture (TC)-treated, clear-bottom plates (VWR). Cells were incubated overnight at 37° C. and 5% CO2. The next day, cells were washed using an ELX 405 (BioTek) with assay buffer; the final volume was then aspirated to 20 μL. Next, 20 μL of a 2.3 μM stock of Fluo-4/acetoxymethyl ester (Invitrogen, Carlsbad, Calif.), prepared as a 2.3 mM stock in DMSO and mixed in a 1:1 ratio with 10% (w/v) Pluronic F-127 and diluted in assay buffer, was added to the wells and the cell plates were incubated for 50 min at 37° C. and 5% CO2. Dye was removed by washing with the ELX 405 and the final volume was aspirated to 20 μL. Compound master plates were formatted in a 10 point concentration-response curve (CRC) format (1:3 dilutions) in 100% DMSO with a starting concentration of 10 or 1 mM using a BRAVO liquid handler (Agilent). Test compound CRCs were then transferred to daughter plates (240 nL) using the Echo acoustic plate reformatter (Labcyte, Sunnyvale, Calif.) and then diluted into assay buffer (40 μL) to a 2× stock using a Thermo Fisher Combi (Thermo Fisher Scientific, Waltham, Mass.).
Calcium flux was measured using the Functional Drug Screening System (FDSS) 6000 or 7000 (Hamamatsu Corporation, Tokyo, Japan) as an increase in the fluorescent static ratio. Compounds were applied to cells (20 μL, 2×) using the automated system of the FDSS at 2 seconds into the protocol and the data were collected at 1 Hz. At 143 s, 10 μL of an EC20 concentration of the muscarinic receptor agonist acetylcholine was added (5×), followed by the addition of 12 μL of an EC80 concentration of acetylcholine at the 268 s time point (5×). Agonist activity was analyzed as a concentration-dependent increase in calcium mobilization upon compound addition. Positive allosteric modulator activity was analyzed as a concentration-dependent increase in the EC20 acetylcholine response. Antagonist activity was analyzed as a concentration-dependent decrease in the EC80 acetylcholine response; for the purposes of the tables herein, an IC50 (inhibitory concentration 50) was calculated as a concentration-dependent decrease of the response elicited by an EC80 concentration of acetylcholine. Concentration-response curves were generated using a four-parameter logistical equation in XLFit curve fitting software (IDBS, Bridgewater, N.J.) for Excel (Microsoft, Redmond, Wash.) or Prism (GraphPad Software, Inc., San Diego, Calif.) or the Dotmatics software platform (Dotmatics, Bishop's Stortford, UK).
Compounds were synthesized as described above. Activity (IC50 and Emin) was determined in the mAChR M4 cell-based functional assay as described above and the data are shown in Table 2.
A general note: Calcium flux is commonly read through the fluorescence of an indicator in the cells.

The structures appear in SMILES notation.

With `[2H]C([2H])(C1CCOCC1)N1C[C@H]2C[C@H](Nc3nnc(-c4cc(F)cc(F)c4F)cc3C(C)(C)C)C[C@H]2C1` [compound 36, (3aR,5s,6aS)-N-(4-(tert-butyl)-6-(2,3,5-trifluorophenyl)pyridazin-3-yl)-2-((tetrahydro-2H-pyran-4-yl)methyl-d2)octahydrocyclopenta[c]pyrrol-5-amine], the remaining activity at 30 µM came out at 4% and the IC50 (in general, the concentration needed to halve the response being measured) turned out to be 1030 nM.
On the same counts, the results for `[2H]C([2H])(C1CCOCC1)N1C[C@H]2C[C@H](Nc3cc(C4(C(F)(F)F)CC4)c(-c4cc(F)c(F)cc4F)nn3)C[C@H]2C1` [compound 38, (3aR,5s,6aS)-2-((tetrahydro-2H-pyran-4-yl)methyl-d2)-N-(5-(1-(trifluoromethyl)cyclopropyl)-6-(2,4,5-trifluorophenyl)pyridazin-3-yl)octahydrocyclopenta[c]pyrrol-5-amine] are 3% and 46.3 nM.
With `[2H]C([2H])(C1CCOCC1)N1C[C@H]2C[C@H](Nc3nnc(-c4cc(F)cc(F)c4F)cc3C3CC3)C[C@H]2C1` [compound 34, (3aR,5s,6aS)-N-(4-cyclopropyl-6-(2,3,5-trifluorophenyl)pyridazin-3-yl)-2-((tetrahydro-2H-pyran-4-yl)methyl-d2)octahydrocyclopenta[c]pyrrol-5-amine], the remaining activity at 30 µM turned out to be 2% and the IC50 amounted to 5.05 nM.
Take `Cc1c(Cl)nnc(N[C@H]2C[C@@H]3CN(CC4CCOCC4)C[C@@H]3C2)c1C#N` [compound 65, 6-chloro-5-methyl-3-(((3aR,5s,6aS)-2-((tetrahydro-2H-pyran-4-yl)methyl)octahydrocyclopenta[c]pyrrol-5-yl)amino)pyridazine-4-carbonitrile]: the remaining activity at 30 µM is 8% and the IC50 came to 2930 nM.
For `[2H]C([2H])(C1CCOCC1)N1C[C@H]2C[C@H](Nc3cc(C)c(-c4ccc5nn(C)cc5c4)nn3)C[C@H]2C1` [compound 19, (3aR,5s,6aS)-N-(5-methyl-6-(2-methyl-2H-indazol-5-yl)pyridazin-3-yl)-2-((tetrahydro-2H-pyran-4-yl)methyl-d2)octahydrocyclopenta[c]pyrrol-5-amine] the same measures were 4% and 1.62 nM.
For `Cc1c(-c2cccc(F)c2)nnc(N[C@H]2C[C@@H]3CN(CC4CCOCC4)C[C@@H]3C2)c1C#N` [compound 69, 6-(3-fluorophenyl)-5-methyl-3-(((3aR,5s,6aS)-2-((tetrahydro-2H-pyran-4-yl)methyl)octahydrocyclopenta[c]pyrrol-5-yl)amino)pyridazine-4-carbonitrile] the same measures were 3% and 8.42 nM.
On the same counts, the results for `Cc1c(-c2ccccc2F)nnc(N[C@H]2C[C@@H]3CN(CC4CCOCC4)C[C@@H]3C2)c1C#N` [compound 68, 6-(2-fluorophenyl)-5-methyl-3-(((3aR,5s,6aS)-2-((tetrahydro-2H-pyran-4-yl)methyl)octahydrocyclopenta[c]pyrrol-5-yl)amino)pyridazine-4-carbonitrile] are 3% and 0.97 nM.
Consider `Fc1cc(F)c(F)c(-c2nnc(N[C@H]3C[C@@H]4CN(C[C@H]5COCCO5)C[C@@H]4C3)cc2C(F)F)c1` [compound 57, (3aR,5s,6aS)-2-(((S)-1,4-dioxan-2-yl)methyl)-N-(5-(difluoromethyl)-6-(2,3,5-trifluorophenyl)pyridazin-3-yl)octahydrocyclopenta[c]pyrrol-5-amine], for which the remaining activity at 30 µM was found to be 3% and the IC50 is 15.5 nM.
With `Cc1ccc(F)cc1-c1nnc(N[C@H]2C[C@@H]3CN(CC4CCOCC4)C[C@@H]3C2)cc1C` [compound 12, (3aR,5s,6aS)-N-(6-(5-fluoro-2-methylphenyl)-5-methylpyridazin-3-yl)-2-((tetrahydro-2H-pyran-4-yl)methyl)octahydrocyclopenta[c]pyrrol-5-amine], the remaining activity at 30 µM stood at 2% and the IC50 worked out at 2.55 nM.
As to `Fc1cc(F)c(F)c(-c2nnc(N[C@H]3C[C@@H]4CN(CC5CCCCO5)C[C@@H]4C3)cc2C(F)F)c1` (single isomer, unassigned) [compound 46], the remaining activity at 30 µM is 3% and the concentration for half-maximal inhibition (IC50) was determined as 1.98 nM.
For `COc1cc(-c2cc(F)ccc2C)nnc1N[C@H]1C[C@@H]2CN(CC3CCOCC3)C[C@@H]2C1` [compound 7, (3aR,5s,6aS)-N-(6-(5-fluoro-2-methylphenyl)-4-methoxypyridazin-3-yl)-2-((tetrahydro-2H-pyran-4-yl)methyl)octahydrocyclopenta[c]pyrrol-5-amine] the same measures were 9% and 6.84 nM.
For `Fc1cc(F)c(F)c(-c2nnc(N[C@H]3C[C@@H]4CN(C[C@@H]5COCCO5)C[C@@H]4C3)cc2C(F)F)c1` [compound 56, (3aR,5s,6aS)-2-(((R)-1,4-dioxan-2-yl)methyl)-N-(5-(difluoromethyl)-6-(2,3,5-trifluorophenyl)pyridazin-3-yl)octahydrocyclopenta[c]pyrrol-5-amine] the same measures were 2% and 0.66 nM.
On the same counts, the results for `Cc1ccc(F)cc1-c1nnc(N[C@H]2C[C@@H]3CN(CC4CCOCC4)C[C@@H]3C2)cc1C(F)F` [compound 43, (3aR,5s,6aS)-N-(5-(difluoromethyl)-6-(5-fluoro-2-methylphenyl)pyridazin-3-yl)-2-((tetrahydro-2H-pyran-4-yl)methyl)octahydrocyclopenta[c]pyrrol-5-amine] are 2% and 0.57 nM.
On to `Fc1ccc(F)c(-c2cc(C(F)F)c(N[C@H]3C[C@@H]4CN(C[C@H]5COCCO5)C[C@@H]4C3)nn2)c1` [compound 81, (3aR,5R,6aS)-2-(((S)-1,4-dioxan-2-yl)methyl)-N-(4-(difluoromethyl)-6-(2,5-difluorophenyl)pyridazin-3-yl)octahydrocyclopenta[c]pyrrol-5-amine], for which the remaining activity at 30 µM is 4% and the concentration for half-maximal inhibition (IC50) stood at 180 nM.
Regarding `[2H]C([2H])(C1CCOCC1)N1C[C@H]2C[C@H](Nc3cc(C)c(-c4cc(F)ccc4F)nn3)C[C@H]2C1` [compound 17, (3aR,5s,6aS)-N-(6-(2,5-difluorophenyl)-5-methylpyridazin-3-yl)-2-((tetrahydro-2H-pyran-4-yl)methyl-d2)octahydrocyclopenta[c]pyrrol-5-amine], the remaining activity at 30 µM turned out to be 3% and the IC50 is 0.58 nM.
For `[2H]C([2H])(C1CCOCC1)N1C[C@H]2C[C@H](Nc3nnc(-c4ccccc4)c(C)c3C(F)(F)F)C[C@H]2C1` [compound 76, (3aR,5s,6aS)-N-(5-methyl-6-phenyl-4-(trifluoromethyl)pyridazin-3-yl)-2-((tetrahydro-2H-pyran-4-yl)methyl-d2)octahydrocyclopenta[c]pyrrol-5-amine] the same measures were 3% and 12.1 nM.
